US20220033397A1, “PHARMACEUTICAL COMPOUNDS AND THEIR USE AS INHIBITORS OF UBIQUITIN SPECIFIC PROTEASE 19 (USP19)” (ALMAC DISCOVERY LIMITED, priority 2018, published 2022)

The compounds below were run against T1, Full-length USP19 (Homo sapiens, UniProt O94966) (assay: USP19 fluorescence polarisation (FP) homogeneous assay with Ubiquitin-Lys-TAMRA substrate). Conditions: 2.5 nM USP19, 30 min pre-incubation, average of at least two duplicate experiments.
T1 construct: Full-length USP19 was purchased from Boston Biochem (E-576); purchased Boston Biochem E-576
T1 sequence (O94966 1-1318): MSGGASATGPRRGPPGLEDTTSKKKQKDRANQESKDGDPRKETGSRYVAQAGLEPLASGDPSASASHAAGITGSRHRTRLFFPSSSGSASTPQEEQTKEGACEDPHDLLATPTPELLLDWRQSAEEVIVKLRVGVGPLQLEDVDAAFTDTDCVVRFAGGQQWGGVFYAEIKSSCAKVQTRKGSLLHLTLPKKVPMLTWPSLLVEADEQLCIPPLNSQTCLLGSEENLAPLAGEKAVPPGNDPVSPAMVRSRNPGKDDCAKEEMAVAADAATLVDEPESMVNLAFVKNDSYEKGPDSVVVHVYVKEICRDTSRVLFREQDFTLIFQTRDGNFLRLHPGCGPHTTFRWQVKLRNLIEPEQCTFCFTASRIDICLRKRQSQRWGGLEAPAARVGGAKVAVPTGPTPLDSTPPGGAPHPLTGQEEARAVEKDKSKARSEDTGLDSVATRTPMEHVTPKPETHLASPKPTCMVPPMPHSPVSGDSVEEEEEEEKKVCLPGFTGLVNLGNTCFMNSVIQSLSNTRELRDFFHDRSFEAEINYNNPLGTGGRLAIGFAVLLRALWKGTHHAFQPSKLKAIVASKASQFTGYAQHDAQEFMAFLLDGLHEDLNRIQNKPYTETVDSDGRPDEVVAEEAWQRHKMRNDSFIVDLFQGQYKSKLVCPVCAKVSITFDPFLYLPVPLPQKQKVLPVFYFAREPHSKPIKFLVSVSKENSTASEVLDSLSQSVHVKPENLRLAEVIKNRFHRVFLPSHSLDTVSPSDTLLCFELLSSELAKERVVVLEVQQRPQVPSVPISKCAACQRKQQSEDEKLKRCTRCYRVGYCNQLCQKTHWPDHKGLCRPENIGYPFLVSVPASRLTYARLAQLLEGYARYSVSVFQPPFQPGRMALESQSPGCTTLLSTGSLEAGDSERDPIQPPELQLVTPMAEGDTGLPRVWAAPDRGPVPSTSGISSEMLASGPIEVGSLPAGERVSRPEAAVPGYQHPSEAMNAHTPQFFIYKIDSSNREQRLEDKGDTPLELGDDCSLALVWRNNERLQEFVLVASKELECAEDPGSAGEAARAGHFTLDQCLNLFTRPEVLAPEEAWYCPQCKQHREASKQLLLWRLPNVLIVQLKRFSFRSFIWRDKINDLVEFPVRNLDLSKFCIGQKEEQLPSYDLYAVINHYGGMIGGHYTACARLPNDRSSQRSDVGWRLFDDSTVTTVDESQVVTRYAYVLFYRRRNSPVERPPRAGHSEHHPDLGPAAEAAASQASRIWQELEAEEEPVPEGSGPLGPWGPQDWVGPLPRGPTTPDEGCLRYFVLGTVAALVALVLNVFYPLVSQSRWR
Assay type: biochemical
Experimental: Unless otherwise stated, all other reagents were purchased from Sigma. Enzymatic reactions were conducted in black flat bottom polystyrene 384-well plates (Nunc) and 30 μL total volume. […] Inhibitors were stored as 10 mM DMSO stocks in an inert environment (low humidity, dark, low oxygen, room temperature) using the Storage Pod System and serial dilutions were prepared in buffer just prior to the assay (from 200 μM to 2 μM, 8-18 data point curve).
Following incubation at RT for 30 min, the enzymatic reactions were initiated by dispensing the Ub substrate (500 nM, 10 μL). FP was measured every 15 min over a period of 90 min (within the linear range of the assay) using a Synergy 4 plate reader (BioTek) exciting at 530 nm and measuring the amount of parallel and perpendicular light at 575 nm. The FP signal was subsequently normalised to the no compound control.
CN(C)C(=O)C1CN(C[C@@]2(O)CCN(C(=O)[C@H](CO)CC3CCCCC3)CC2(C)C)C(=O)CC1c1ccccc1 (stereo partly drawn) [Example 25, 1-(((R)-1-((S)-3-Cyclohexyl-2-(hydroxymethyl)propanoyl)-4-hydroxy-3,3-dimethylpiperidin-4-yl)methyl)-N,N-dimethyl-6-oxo-4-phenylpiperidine-3-carboxamide] was tested, and the IC50 was 5 to 50 µM.
With CN(C)C(=O)C1CN(C[C@]2(O)CCN(C(=O)[C@H](CO)CC3CCCCC3)CC2(C)C)C(=O)CC1c1ccccc1 (stereo partly drawn) [Example 26, 1-(((S)-1-((S)-3-Cyclohexyl-2-(hydroxymethyl)propanoyl)-4-hydroxy-3,3-dimethylpiperidin-4-yl)methyl)-N,N-dimethyl-6-oxo-4-phenylpiperidine-3-carboxamide] the IC50 was less than 0.5 µM.
With C[C@H](CC1CCCCC1)C(=O)N1CCC(O)(CN2Cc3ccccc3C2=O)C(C)(C)C1 (stereo partly drawn) [Example 27, 2-((1-((R)-3-Cyclohexyl-2-methylpropanoyl)-4-hydroxy-3,3-dimethylpiperidin-4-yl)methyl)isoindolin-1-one] the IC50 was 5 to 50 µM.
In the case of C[C@H](CC1CCCCC1)C(=O)N1CCC(O)(CN2CC(Cc3ccccc3)CC2=O)C(C)(C)C1 (stereo partly drawn) [Example 30, 4-Benzyl-1-((1-((R)-3-cyclohexyl-2-methylpropanoyl)-4-hydroxy-3,3-dimethylpiperidin-4-yl)methyl)pyrrolidin-2-one], the IC50 is reported as 0.5 to 5 µM.
C[C@H](CC1CCCCC1)C(=O)N1CCC(O)(CN2CCOCC2=O)C2(CCCC2)C1 (stereo partly drawn) [Example 31, 4-((7-((R)-3-Cyclohexyl-2-methylpropanoyl)-10-hydroxy-7-azaspiro[4.5]decan-10-yl)methyl)morpholin-3-one] showed an IC50 of less than 0.5 µM.
In the case of C[C@H](CC(F)(F)F)C(=O)N1CCC(O)(CN2CCOCC2=O)C2(CCCC2)C1 (stereo partly drawn) [Example 32, 4-((10-Hydroxy-7-((R)-4,4,4-trifluoro-2-methylbutanoyl)-7-azaspiro[4.5]decan-10-yl)methyl)morpholin-3-one], the IC50 is reported as 50 to 250 µM.
CCCn1c(=O)n(CC2(O)CCN(C(=O)[C@H](C)CC3CCCCC3)CC23CCCC3)c2ccccc21 (stereo partly drawn) [Example 33, 1-((7-((R)-3-Cyclohexyl-2-methylpropanoyl)-10-hydroxy-7-azaspiro[4.5]decan-10-yl)methyl)-3-propyl-1,3-dihydro-2H-benzo[d]imidazol-2-one] showed an IC50 of 5 to 50 µM.
With C[C@H](CC1CCCCC1)C(=O)N1CCC(O)(CN2CC(CO)CC2=O)C2(CCCC2)C1 (stereo partly drawn) [Example 34, 1-((7-((R)-3-Cyclohexyl-2-methylpropanoyl)-10-hydroxy-7-azaspiro[4.5]decan-10-yl)methyl)-4-(hydroxymethyl)pyrrolidin-2-one] the IC50 was 5 to 50 µM.
C[C@H](CC1CCCCC1)C(=O)N1CCC(O)(CN2C(=O)COc3cccnc32)C2(CCCC2)C1 (stereo partly drawn) [Example 35, 4-((7-((R)-3-Cyclohexyl-2-methylpropanoyl)-10-hydroxy-7-azaspiro[4.5]decan-10-yl)methyl)-2H-pyrido[3,2-b][1,4]oxazin-3(4H)-one] gave an IC50 of 0.5 to 5 µM.
For C[C@H](CC1CCCCC1)C(=O)N1CCC(O)(CN2C(=O)C(=O)c3ccccc32)C2(CCCC2)C1 (stereo partly drawn) [Example 36, 1-((7-((R)-3-Cyclohexyl-2-methylpropanoyl)-10-hydroxy-7-azaspiro[4.5]decan-10-yl)methyl)indoline-2,3-dione], the IC50 was 5 to 50 µM.
C[C@H](CC1CCCCC1)C(=O)N1CCC(O)(CN2C(=O)COc3c(N)cccc32)C2(CCCC2)C1 (stereo partly drawn) [Example 37, 8-Amino-4-((7-((R)-3-cyclohexyl-2-methylpropanoyl)-10-hydroxy-7-azaspiro[4.5]decan-10-yl)methyl)-2H-benzo[b][1,4]oxazin-3(4H)-one] was tested, and the IC50 was 0.5 to 5 µM.
C[C@H](CC1CCCCC1)C(=O)N1CCC(O)(CN2CCN(C(=O)OC(C)(C)C)CC2=O)C2(CCCC2)C1 (stereo partly drawn) [Example 38, tert-Butyl 4-((7-((R)-3-cyclohexyl-2-methylpropanoyl)-10-hydroxy-7-azaspiro[4.5]decan-10-yl)methyl)-3-oxopiperazine-1-carboxylate] showed an IC50 of less than 0.5 µM.
C[C@H](CC1CCCCC1)C(=O)N1CCC(O)(CN2CCNCC2=O)C2(CCCC2)C1 (stereo partly drawn) [Example 39] was tested, and the IC50 was 0.5 to 5 µM.
Compound C[C@H](CC1CCCCC1)C(=O)N1CCC(O)(CN2CC(Cc3ccccc3)CC2=O)C2(CCCC2)C1 (stereo partly drawn) [Example 41, 4-Benzyl-1-((7-((R)-3-cyclohexyl-2-methylpropanoyl)-10-hydroxy-7-azaspiro[4.5]decan-10-yl)methyl)pyrrolidin-2-one] has an IC50 of 0.5 to 5 µM.
Compound CC(CC1CCCCC1)C(=O)N1CCC(O)(CN2C(=O)c3ccccc3C2=O)C(C)(C)C1 (stereo not drawn) [Example 42, 2-((1-(3-Cyclohexyl-2-methylpropanoyl)-4-hydroxy-3,3-dimethylpiperidin-4-yl)methyl)isoindoline-1,3-dione] has an IC50 of 50 to 250 µM.
Work on CC(CC1CCCCC1)C(=O)N1CCC(O)(CN2CC(Cc3ccccc3)CC2=O)CC1 (stereo not drawn) [Example 43, 4-Benzyl-1-((1-(3-cyclohexyl-2-methylpropanoyl)-4-hydroxypiperidin-4-yl)methyl)pyrrolidin-2-one] yielded an IC50 of 5 to 50 µM.
CC(Cc1ccccc1)C(=O)N1CCC(O)(CN2CC(Cc3ccccc3)CC2=O)C(C)(C)C1 (stereo not drawn) [Example 44, 4-Benzyl-1-((4-hydroxy-3,3-dimethyl-1-(2-methyl-3-phenylpropanoyl)piperidin-4-yl)methyl)pyrrolidin-2-one] was tested, and the IC50 was 50 to 250 µM.
CC1(C)CN(C(=O)CCC2CCCCC2)CCC1(O)CN1CC(Cc2ccccc2)CC1=O (stereo not drawn) [Example 45, 4-Benzyl-1-((1-(3-cyclohexylpropanoyl)-4-hydroxy-3,3-dimethylpiperidin-4-yl)methyl)pyrrolidin-2-one] gave an IC50 of 50 to 250 µM.
Work on CC(CC1CCCCC1)C(=O)N1CCC(O)(CN2CC3(CCCCC3)CC2=O)C(C)(C)C1 (stereo not drawn) [Example 46, 2-((1-(3-Cyclohexyl-2-methylpropanoyl)-4-hydroxy-3,3-dimethylpiperidin-4-yl)methyl)-2-azaspiro[4.5]decan-3-one] yielded an IC50 of 50 to 250 µM.
With C[C@H](CC1CCCCC1)C(=O)N1CCC(O)(CN2CCN(C(=O)OCc3ccccc3)CC2=O)C2(CCCC2)C1 (stereo partly drawn) [Example 47, Benzyl 4-((7-((R)-3-cyclohexyl-2-methylpropanoyl)-10-hydroxy-7-azaspiro[4.5]decan-10-yl)methyl)-3-oxopiperazine-1-carboxylate] the IC50 was 0.5 to 5 µM.
CC(=O)N1CCN(CC2(O)CCN(C(=O)[C@H](C)CC3CCCCC3)CC23CCCC3)C(=O)C1 (stereo partly drawn) [Example 48, 4-Acetyl-1-((7-((R)-3-cyclohexyl-2-methylpropanoyl)-10-hydroxy-7-azaspiro[4.5]decan-10-yl)methyl)piperazin-2-one] gave an IC50 of less than 0.5 µM.
For C[C@H](CC1CCCCC1)C(=O)N1CCC(O)(CN2CCN(S(C)(=O)=O)CC2=O)C2(CCCC2)C1 (stereo partly drawn) [Example 49, 1-((7-((R)-3-Cyclohexyl-2-methylpropanoyl)-10-hydroxy-7-azaspiro[4.5]decan-10-yl)methyl)-4-(methylsulfonyl)piperazin-2-one], the IC50 was 0.5 to 5 µM.
With C[C@H](CC1CCCCC1)C(=O)N1CCC(O)(CN2CCN(c3ccccc3)CC2=O)C2(CCCC2)C1 (stereo partly drawn) [Example 50, 1-((7-((R)-3-Cyclohexyl-2-methylpropanoyl)-10-hydroxy-7-azaspiro[4.5]decan-10-yl)methyl)-4-phenylpiperazin-2-one] the IC50 was less than 0.5 µM.
C[C@H](CC1CCCCC1)C(=O)N1CCC(O)(Cn2nc3ccccn3c2=O)C(C)(C)C1 (stereo partly drawn) [Example 51, 2-((1-((R)-3-Cyclohexyl-2-methylpropanoyl)-4-hydroxy-3,3-dimethylpiperidin-4-yl)methyl)-[1,2,4]triazolo[4,3-a]pyridin-3(2H)-one] showed an IC50 of 5 to 50 µM.
